# From paper PMC4823954, “From fighting depression to conquering tumors: a novel tricyclic thiazepine compound as a tubulin polymerization inhibitor” (Cell Death & Disease, 2016)
# Values joined by “and” are separate entries in the source; they are usually repeats but may differ in a detail not shown here. Equal entries are not always repeated. Where two headings read alike, the source gives them in different places.
# What was measured:
# PKNB(M.tuberculosis) = molecular target: T1, PKNB(M.tuberculosis) (Mycobacterium tuberculosis, UniProt P9WI81); test: KINOMEscan; assay type: binding; conditions: read-out: % Ctrl
# T1 construct: purchased DiscoveRx KINOMEscan
# H460TaxR xenograft = test: NSCLC xenograft tumor growth inhibition; assay type: in vivo; conditions: H460TaxR xenografted mice; TBPT 60 mg/kg i.v., five injections every other day
# Method: (§1) (a) The tumor volume was measured every other day. […] (b) Blood biochemical and hematological analyses.
# H460 xenograft = test: NSCLC xenograft tumor growth inhibition; assay type: in vivo; conditions: H460 xenografted mice; TBPT 60 mg/kg i.v., five injections every other day
# Method: as §1
# [1] = molecular target: T2, ABL1(F317I)-phosphorylated (Homo sapiens, UniProt P00519, F317I); test: KINOMEscan; assay type: binding; conditions: read-out: % Ctrl
# T2 construct: purchased DiscoveRx KINOMEscan
# PIK3CA(Q546K) = molecular target: T3, PIK3CA(Q546K) (Homo sapiens, UniProt P42336, Q546K); test: KINOMEscan; assay type: binding; conditions: read-out: % Ctrl
# T3 construct: purchased DiscoveRx KINOMEscan
# H460 [2] = test: Apoptosis flow cytometry (PI/Annexin V-FITC); assay type: cell-based, human; conditions: NSCLC cells (H460), 2 μM, 48 h
# [3] = parallel artificial membrane permeability assay (PAMPA); assay type: in vitro ADME
# Excerpt: As in vivo investigations are generally time consuming and expensive, it is advantageous to eliminate those compounds that are not suitable for animal experiments. One of the necessary steps is to screen the initial hits using assays testing their possible behaviors in vivo. To evaluate the drug-like properties of TBPT, a panel of in vitro assays was preformed (Table 1). The parallel artificial membrane permeability assay (PAMPA) was used to evaluate the cell permeability of the compounds. Compounds with a Pe >[…] are classified as highly permeable. […] The Caco-2 assay was used to predict the oral absorption values of the compounds in vivo. Compounds with a Caco-2 efflux ratio >2 may be subject to active efflux and should not be developed further. […] The half-life (T1/2) in human liver microsomes is used to predict the metabolism properties of compounds in vivo. […] A very long T1/2 (>24 h) increases the risk of cumulative toxicity and is not desirable. […] T1/2 in plasma indicates the stability of the drug in human blood; the high T1/2 values of these compounds indicated better stability in vivo. Plasma protein binding influences the distribution of drugs into body tissues, and compounds with high plasma protein binding (>99%) are limited in terms of the amount of free compound that are available to act on the targeted tissue. […]
# KIT(A829P) = molecular target: T4, KIT(A829P) (Homo sapiens, UniProt P10721, A829P); test: KINOMEscan; assay type: binding; conditions: read-out: % Ctrl
# T4 construct: purchased DiscoveRx KINOMEscan
# P-gp = molecular target: T5, P-gp (Homo sapiens, UniProt P08183); test: P-gp ATPase activity assay; assay type: biochemical; conditions: compared with DMSO; TBPT 2 μM, 1 h; human cell membrane P-gp fractions
# T5 construct: purchased Promega Biotech, Madison, WI, USA
# Method: The P-gp ATPase activity was determined in human cell membrane P-gp fractions using a luminescence-based assay.
# The P-gp ATPase activity assay was conducted using the P-gp Glo Assay System following the manufacturer's protocol (Promega Biotech, Madison, WI, USA). […] Then, the luminescence was measured using a POLARstar Galaxy luminometer (BMG Labtech, Offenburg, Germany). The change in luminescence was calculated by comparing the Na3VO4-treated samples with the other compound-treated samples. The change in luminescence change is proportional to the ATP consumption in the samples, which correlated positively with the P-gp ATPase activity.
# FLT3(D835H) = molecular target: T6, FLT3(D835H) (Homo sapiens, UniProt P36888, D835H); test: KINOMEscan; assay type: binding; conditions: read-out: % Ctrl
# T6 construct: purchased DiscoveRx KINOMEscan
# [4] = molecular target: T7, ABL1(F317I)-nonphosphorylated (Homo sapiens, UniProt P00519, F317I); test: KINOMEscan; assay type: binding; conditions: read-out: % Ctrl
# T7 construct: purchased DiscoveRx KINOMEscan
# EGFR(T790M) = molecular target: T8, EGFR(T790M) (Homo sapiens, UniProt P00533, T790M); test: KINOMEscan; assay type: binding; conditions: read-out: % Ctrl
# T8 construct: purchased DiscoveRx KINOMEscan
# H460TaxR [5] = test: Apoptosis flow cytometry (PI/Annexin V-FITC); assay type: cell-based, human; conditions: NSCLC cells (H460TaxR), 2 μM, 48 h
# EGFR(L858R) = molecular target: T9, EGFR(L858R) (Homo sapiens, UniProt P00533, L858R); test: KINOMEscan; assay type: binding; conditions: read-out: % Ctrl
# T9 construct: purchased DiscoveRx KINOMEscan
# FLT3(D835Y) = molecular target: T10, FLT3(D835Y) (Homo sapiens, UniProt P36888, D835Y); test: KINOMEscan; assay type: binding; conditions: read-out: % Ctrl
# T10 construct: purchased DiscoveRx KINOMEscan
# EGFR(L861Q) = molecular target: T11, EGFR(L861Q) (Homo sapiens, UniProt P00533, L861Q); test: KINOMEscan; assay type: binding; conditions: read-out: % Ctrl
# T11 construct: purchased DiscoveRx KINOMEscan
# tubulin = molecular target: T12, tubulin (Sus scrofa, UniProt P02550+P02554); test: Tubulin polymerization assay (cell-free); assay type: biochemical; conditions: fluorescence, 50 min, 37 °C, read-out: IC50 of tubulin polymerization (microtubule formation)
# T12 construct: purchased Cytoskeleton, Denver, CO, USA
# Method: A fluorescence-based tubulin polymerization assay kit was used to monitor the polymerization process according to the manufacturer's instructions (Cytoskeleton, Denver, CO, USA). […] Tubulin solution (50 μl) was dispensed rapidly into each well.
# FLT3(K663Q) = molecular target: T13, FLT3(K663Q) (Homo sapiens, UniProt P36888, K663Q); test: KINOMEscan; assay type: binding; conditions: read-out: % Ctrl
# T13 construct: purchased DiscoveRx KINOMEscan
# [6] = Caco-2 cell bi-directional transport assay; assay type: in vitro ADME; conditions: human; for Papp: Caco-2
# Excerpt: As in vivo investigations are generally time consuming and expensive, it is advantageous to eliminate those compounds that are not suitable for animal experiments. One of the necessary steps is to screen the initial hits using assays testing their possible behaviors in vivo. To evaluate the drug-like properties of TBPT, a panel of in vitro assays was preformed (Table 1). The parallel artificial membrane permeability assay (PAMPA) was used to evaluate the cell permeability of the compounds. Compounds with a Pe >[…] are classified as highly permeable. […] The Caco-2 assay was used to predict the oral absorption values of the compounds in vivo. Compounds with a Caco-2 efflux ratio >2 may be subject to active efflux and should not be developed further. […] The half-life (T1/2) in human liver microsomes is used to predict the metabolism properties of compounds in vivo. […] A very long T1/2 (>24 h) increases the risk of cumulative toxicity and is not desirable. […] T1/2 in plasma indicates the stability of the drug in human blood; the high T1/2 values of these compounds indicated better stability in vivo. Plasma protein binding influences the distribution of drugs into body tissues, and compounds with high plasma protein binding (>99%) are limited in terms of the amount of free compound that are available to act on the targeted tissue.
# The PAMPA and Caco-2 cell bi-directional transport assay of the derivatives were conducted as described in our previous report.[65], [66] The human liver microsome, plasma stability and plasma protein-binding assays were conducted following modified protocols reported by Cyprotex (Macclesfield, UK).[67], [68], [69], [70]
# [7] = molecular target: T14, ABL1(E255K)-phosphorylated (Homo sapiens, UniProt P00519, E255K); test: KINOMEscan; assay type: binding; conditions: read-out: % Ctrl
# T14 construct: purchased DiscoveRx KINOMEscan
# H460 [8] = test: Mitochondrial membrane potential (JC-1); assay type: cell-based, human; conditions: H460, 2 μM, 12 h
# Method: (§2) The mitochondrial membrane potential was determined using JC-1 dye (Beyotime, Beijing, China). NSCLC cells (4 × 10^4 cells in 0.5 ml) were seeded in 24-well culture plates. […] Carbonyl cyanide m-chlorophenylhydrazone (CCCP; 10 μM), a mitochondrial membrane disrupter, was used to treat cells for 20 min as a positive control. Then, the cells were incubated with 200 μl JC-1 working solution at 37 °C for 20 min. After the cells were washed in RPMI-1640 medium, they were observed and imaged using a fluorescence microscope (Olympus IX71).
# H460TaxR [9] = test: Mitochondrial membrane potential (JC-1); assay type: cell-based, human; conditions: 2 μM, 12 h
# Method: as §2
# T1 sequence (P9WI81 whole entry): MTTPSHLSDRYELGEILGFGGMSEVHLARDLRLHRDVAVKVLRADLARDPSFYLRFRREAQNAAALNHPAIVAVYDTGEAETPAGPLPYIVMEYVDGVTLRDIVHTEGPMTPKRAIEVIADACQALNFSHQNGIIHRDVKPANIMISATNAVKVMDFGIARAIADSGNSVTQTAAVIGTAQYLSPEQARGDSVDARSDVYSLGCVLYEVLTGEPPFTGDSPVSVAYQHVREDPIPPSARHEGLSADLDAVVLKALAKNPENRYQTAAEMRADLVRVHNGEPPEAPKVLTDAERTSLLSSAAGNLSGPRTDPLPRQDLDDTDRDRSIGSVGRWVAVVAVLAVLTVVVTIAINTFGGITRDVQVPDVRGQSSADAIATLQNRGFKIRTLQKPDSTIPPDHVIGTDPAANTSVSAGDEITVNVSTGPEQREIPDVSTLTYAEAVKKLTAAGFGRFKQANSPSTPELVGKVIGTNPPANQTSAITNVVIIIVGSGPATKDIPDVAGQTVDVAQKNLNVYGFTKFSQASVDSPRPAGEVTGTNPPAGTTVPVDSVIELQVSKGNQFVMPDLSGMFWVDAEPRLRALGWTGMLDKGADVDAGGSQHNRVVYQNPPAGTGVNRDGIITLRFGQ
# T8 sequence (P00533 25-1210 T790M): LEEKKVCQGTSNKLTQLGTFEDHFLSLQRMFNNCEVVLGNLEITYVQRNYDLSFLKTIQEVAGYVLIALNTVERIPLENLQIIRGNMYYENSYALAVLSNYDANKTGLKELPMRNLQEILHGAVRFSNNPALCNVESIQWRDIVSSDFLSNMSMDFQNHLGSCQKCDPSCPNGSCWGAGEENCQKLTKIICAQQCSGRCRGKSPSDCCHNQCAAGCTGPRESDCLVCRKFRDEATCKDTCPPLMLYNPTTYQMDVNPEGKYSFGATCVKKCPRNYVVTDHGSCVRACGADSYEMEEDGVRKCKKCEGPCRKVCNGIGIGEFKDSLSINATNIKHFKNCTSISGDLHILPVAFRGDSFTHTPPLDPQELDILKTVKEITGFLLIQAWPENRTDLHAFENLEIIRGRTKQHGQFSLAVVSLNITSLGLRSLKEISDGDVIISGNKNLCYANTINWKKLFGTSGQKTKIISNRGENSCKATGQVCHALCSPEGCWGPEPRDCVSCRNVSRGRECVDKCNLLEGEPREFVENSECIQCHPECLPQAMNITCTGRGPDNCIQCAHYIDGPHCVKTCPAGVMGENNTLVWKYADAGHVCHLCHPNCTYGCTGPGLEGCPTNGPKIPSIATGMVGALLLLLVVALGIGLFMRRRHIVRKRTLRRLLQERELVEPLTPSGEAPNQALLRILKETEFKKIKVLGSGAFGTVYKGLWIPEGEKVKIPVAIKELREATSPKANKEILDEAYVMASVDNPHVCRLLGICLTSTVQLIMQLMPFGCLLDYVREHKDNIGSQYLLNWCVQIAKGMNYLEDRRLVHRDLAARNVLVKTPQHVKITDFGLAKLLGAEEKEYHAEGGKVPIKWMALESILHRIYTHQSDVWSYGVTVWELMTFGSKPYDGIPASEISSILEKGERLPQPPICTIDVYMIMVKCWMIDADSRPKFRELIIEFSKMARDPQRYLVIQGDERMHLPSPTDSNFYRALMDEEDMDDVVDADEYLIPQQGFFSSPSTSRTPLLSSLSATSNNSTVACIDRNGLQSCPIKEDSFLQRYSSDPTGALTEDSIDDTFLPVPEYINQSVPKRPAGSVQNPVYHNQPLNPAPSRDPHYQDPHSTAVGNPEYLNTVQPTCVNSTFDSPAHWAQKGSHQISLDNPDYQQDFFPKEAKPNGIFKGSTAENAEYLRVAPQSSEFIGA
# T4 sequence (P10721 26-976 A829P): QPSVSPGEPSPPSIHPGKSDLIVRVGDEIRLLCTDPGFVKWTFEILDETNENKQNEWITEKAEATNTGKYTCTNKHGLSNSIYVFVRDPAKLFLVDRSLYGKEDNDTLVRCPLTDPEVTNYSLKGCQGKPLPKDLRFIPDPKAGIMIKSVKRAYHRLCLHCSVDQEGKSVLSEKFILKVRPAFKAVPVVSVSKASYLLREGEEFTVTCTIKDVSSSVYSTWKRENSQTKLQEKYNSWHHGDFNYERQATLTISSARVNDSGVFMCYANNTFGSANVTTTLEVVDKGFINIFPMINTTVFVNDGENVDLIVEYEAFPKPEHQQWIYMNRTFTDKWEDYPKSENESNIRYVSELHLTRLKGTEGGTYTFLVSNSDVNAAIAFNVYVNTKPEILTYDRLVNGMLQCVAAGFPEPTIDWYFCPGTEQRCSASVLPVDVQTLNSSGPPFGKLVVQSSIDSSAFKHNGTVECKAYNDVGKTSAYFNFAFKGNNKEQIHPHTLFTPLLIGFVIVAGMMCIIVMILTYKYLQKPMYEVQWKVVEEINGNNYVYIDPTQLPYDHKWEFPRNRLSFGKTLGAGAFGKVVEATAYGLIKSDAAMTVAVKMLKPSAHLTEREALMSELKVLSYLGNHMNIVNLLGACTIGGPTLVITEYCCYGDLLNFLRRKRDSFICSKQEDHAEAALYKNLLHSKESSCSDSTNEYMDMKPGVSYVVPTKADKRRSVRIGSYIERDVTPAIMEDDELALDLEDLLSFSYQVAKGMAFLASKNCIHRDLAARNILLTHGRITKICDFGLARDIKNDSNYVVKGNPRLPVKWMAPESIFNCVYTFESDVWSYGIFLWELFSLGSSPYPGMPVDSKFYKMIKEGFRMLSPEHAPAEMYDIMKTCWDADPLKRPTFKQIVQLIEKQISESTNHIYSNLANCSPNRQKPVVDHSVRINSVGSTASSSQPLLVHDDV
# T7 sequence (P00519 whole entry F317I): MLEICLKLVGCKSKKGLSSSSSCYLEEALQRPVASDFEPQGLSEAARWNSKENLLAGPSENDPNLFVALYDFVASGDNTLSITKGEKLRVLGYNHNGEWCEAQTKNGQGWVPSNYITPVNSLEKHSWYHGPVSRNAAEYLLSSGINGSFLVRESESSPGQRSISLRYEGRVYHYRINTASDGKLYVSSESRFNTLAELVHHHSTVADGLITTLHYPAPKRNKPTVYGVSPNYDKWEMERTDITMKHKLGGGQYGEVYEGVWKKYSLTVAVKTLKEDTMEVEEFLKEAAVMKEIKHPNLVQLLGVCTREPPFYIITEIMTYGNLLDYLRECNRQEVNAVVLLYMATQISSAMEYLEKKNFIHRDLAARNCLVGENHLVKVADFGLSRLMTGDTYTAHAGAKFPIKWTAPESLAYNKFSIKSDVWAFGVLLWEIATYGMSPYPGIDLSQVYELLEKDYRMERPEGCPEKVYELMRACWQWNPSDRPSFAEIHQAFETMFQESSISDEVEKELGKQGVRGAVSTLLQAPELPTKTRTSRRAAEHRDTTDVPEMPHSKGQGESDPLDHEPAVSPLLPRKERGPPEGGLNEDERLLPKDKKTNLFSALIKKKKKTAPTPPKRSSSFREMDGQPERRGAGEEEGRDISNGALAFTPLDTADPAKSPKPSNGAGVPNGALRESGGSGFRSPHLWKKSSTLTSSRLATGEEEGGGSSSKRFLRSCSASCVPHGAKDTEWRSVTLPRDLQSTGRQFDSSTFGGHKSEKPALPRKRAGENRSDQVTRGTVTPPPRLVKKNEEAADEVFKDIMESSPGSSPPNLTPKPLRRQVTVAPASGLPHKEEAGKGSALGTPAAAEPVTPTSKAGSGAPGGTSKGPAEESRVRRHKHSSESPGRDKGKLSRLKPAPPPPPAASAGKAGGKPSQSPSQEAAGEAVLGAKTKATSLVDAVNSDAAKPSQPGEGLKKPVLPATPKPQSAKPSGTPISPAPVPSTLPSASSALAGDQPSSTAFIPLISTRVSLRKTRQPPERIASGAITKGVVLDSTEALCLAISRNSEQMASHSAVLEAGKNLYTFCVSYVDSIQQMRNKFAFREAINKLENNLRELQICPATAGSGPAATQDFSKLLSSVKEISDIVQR
# T2 sequence (P00519 whole entry F317I): as above
# T9 sequence (P00533 25-1210 L858R): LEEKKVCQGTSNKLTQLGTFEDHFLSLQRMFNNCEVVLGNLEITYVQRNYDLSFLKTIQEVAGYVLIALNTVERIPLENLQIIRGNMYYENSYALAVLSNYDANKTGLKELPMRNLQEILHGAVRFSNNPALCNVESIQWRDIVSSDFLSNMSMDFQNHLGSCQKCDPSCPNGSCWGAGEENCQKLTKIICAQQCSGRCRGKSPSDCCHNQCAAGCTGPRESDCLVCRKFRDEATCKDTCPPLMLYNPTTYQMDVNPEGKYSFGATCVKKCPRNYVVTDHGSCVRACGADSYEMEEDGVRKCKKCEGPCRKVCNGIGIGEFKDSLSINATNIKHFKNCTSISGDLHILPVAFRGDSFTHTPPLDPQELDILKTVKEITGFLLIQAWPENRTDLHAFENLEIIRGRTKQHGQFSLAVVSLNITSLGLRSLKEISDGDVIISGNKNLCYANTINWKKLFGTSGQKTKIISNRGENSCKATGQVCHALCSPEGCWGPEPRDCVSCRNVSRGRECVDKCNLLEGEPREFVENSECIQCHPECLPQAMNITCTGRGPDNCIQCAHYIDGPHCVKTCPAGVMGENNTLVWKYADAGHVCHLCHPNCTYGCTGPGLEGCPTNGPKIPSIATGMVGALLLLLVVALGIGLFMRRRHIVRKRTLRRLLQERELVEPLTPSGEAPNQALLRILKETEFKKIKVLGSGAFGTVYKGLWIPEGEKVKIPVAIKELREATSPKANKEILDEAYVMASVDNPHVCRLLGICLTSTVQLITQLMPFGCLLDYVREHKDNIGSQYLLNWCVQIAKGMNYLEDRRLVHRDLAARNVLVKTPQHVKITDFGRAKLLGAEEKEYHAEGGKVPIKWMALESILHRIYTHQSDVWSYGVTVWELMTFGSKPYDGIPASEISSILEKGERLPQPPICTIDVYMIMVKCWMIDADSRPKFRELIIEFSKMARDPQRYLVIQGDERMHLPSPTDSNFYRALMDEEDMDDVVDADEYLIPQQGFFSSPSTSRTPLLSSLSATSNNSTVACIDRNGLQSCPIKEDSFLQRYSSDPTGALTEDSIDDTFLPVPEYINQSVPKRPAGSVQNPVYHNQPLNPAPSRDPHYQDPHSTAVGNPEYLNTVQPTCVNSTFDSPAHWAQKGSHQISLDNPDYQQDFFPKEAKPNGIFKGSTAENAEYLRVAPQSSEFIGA
smiles,measurement,setting,value
"Cc1ccc(C2=Nc3cccnc3S(=O)(=O)c3ccccc32)cc1 [TBPT, 6-(p-tolyl)benzo[f] pyrido[2,3-b][1,4] thiazepine 11,11-dioxide]",remaining binding at 5 µM,PKNB(M.tuberculosis); 5 μM,100%
same,remaining binding at 10 µM,PKNB(M.tuberculosis); 10 μM,85%
same,"tumor growth inhibition, TGI",H460TaxR xenograft,66.7% and > 60%
same,"tumor growth inhibition, TGI",H460 xenograft,62.9% and > 60%
same,remaining binding at 5 µM,[1]; 5 μM,78%
same,remaining binding at 10 µM,[1]; 10 μM,81%
same,remaining binding at 5 µM,PIK3CA(Q546K); 5 μM,100%
same,remaining binding at 10 µM,PIK3CA(Q546K); 10 μM,94%
same,cells in an apoptotic/necrotic state,H460 [2],approximately 50%
same,PAMPA Pe,[3],1081.1±30.2 10^−6cm/s
same,remaining binding at 5 µM,KIT(A829P); 5 μM,95%
same,remaining binding at 10 µM,KIT(A829P); 10 μM,96%
same,P-gp ATPase activity,P-gp,did not induce P-gp ATPase activity
same,remaining binding at 5 µM,FLT3(D835H); 5 μM,100%
same,remaining binding at 10 µM,FLT3(D835H); 10 μM,97%
same,remaining binding at 5 µM,[4]; 5 μM,89%
same,remaining binding at 10 µM,[4]; 10 μM,100%
same,remaining binding at 5 µM,EGFR(T790M); 5 μM,100%
same,remaining binding at 10 µM,EGFR(T790M); 10 μM,96%
same,cells in an apoptotic/necrotic state,H460TaxR [5],approximately 50%
same,remaining binding at 5 µM,EGFR(L858R); 5 μM,85%
same,remaining binding at 10 µM,EGFR(L858R); 10 μM,100%
same,remaining binding at 5 µM,FLT3(D835Y); 5 μM,92%
same,remaining binding at 10 µM,FLT3(D835Y); 10 μM,100%
same,remaining binding at 5 µM,EGFR(L861Q); 5 μM,100%
same,remaining binding at 10 µM,EGFR(L861Q); 10 μM,100%
same,IC50,tubulin,12.6 µM
same,remaining binding at 5 µM,FLT3(K663Q); 5 μM,84%
same,remaining binding at 10 µM,FLT3(K663Q); 10 μM,94%
same,efflux ratio,"[6]; Caco-2, Caco-2, read-out: Efflux ratio (B2A/A2B)",0.4 to 0.8
same,Papp,[6]; read-out: Caco-2 Papp A/B,34.5 ± 2.06 ×10⁻⁶ cm/s
same,Papp,[6]; read-out: Caco-2 Papp B/A,20.6 ± 7 ×10⁻⁶ cm/s
same,remaining binding at 5 µM,[7]; 5 μM,60%
same,remaining binding at 10 µM,[7]; 10 μM,89%
same,mitochondrial membrane potential,H460 [8],decreased significantly
same,mitochondrial membrane potential,H460TaxR [9],decreased significantly
